Patent US9101638B2, “Boronic acid derivatives and therapeutic uses thereof” (Rempex Pharmaceuticals, Inc., priority 2013, dated 2015)
Like-named read-outs stand apart in the source and are kept apart here.

Key:
EC1010 (CMY-6) [1] = test: Potentiation of aztreonam, strain EC1010; type: cell-based
KP1009 (CTX-M-15) [2] = test: Potentiation of tigemonam, strain KP1009; conditions: minimum BLI concentration inhibiting growth with 4 μg/mL tigemonam
KP1004 (K-2) = test: Potentiation of aztreonam, strain KP1004; type: cell-based; conditions: for AZT MPC4 K-2 KP1004: minimum BLI concentration inhibiting growth with 4 μg/mL aztreonam
KP1009 (CTX-M-15) [3] = test: Potentiation of aztreonam, strain KP1009; type: cell-based
SHV-12 = SHV-12 (Klebsiella pneumoniae, UniProt P0AD64, E235K/G234S/L31Q); test: Inhibition of nitrocefin cleavage by purified SHV-12; type: biochemical; conditions: nitrocefin reporter substrate, purified enzyme; read-out: Ki (SHV-12, NCF)
Chain of SHV-12 (P0AD64 22-286 L31Q/G234S/E235K): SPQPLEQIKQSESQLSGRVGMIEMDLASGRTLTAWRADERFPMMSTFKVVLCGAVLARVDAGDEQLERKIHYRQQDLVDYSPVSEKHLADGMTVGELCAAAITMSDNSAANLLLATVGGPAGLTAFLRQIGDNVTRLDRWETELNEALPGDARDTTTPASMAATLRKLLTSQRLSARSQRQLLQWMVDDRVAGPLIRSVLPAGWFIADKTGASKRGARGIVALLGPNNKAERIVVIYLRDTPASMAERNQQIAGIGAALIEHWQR
Method: (§1) Purified enzymes were mixed with various concentrations of inhibitors in reaction buffer and incubated for 10 min at room temperature. Nitrocefin was added and substrate cleavage profiles were recorded at 490 nm every 10 sec for 10 min.

EC1010 (CMY-6) [4] = type: cell-based
ec302 (TEM-10) [5] = test: Potentiation of aztreonam, strain ec302; type: cell-based
ec308 (SHV-5) [6] = test: Potentiation of aztreonam, strain ec308; type: cell-based; conditions: for AZT MPC4 SHV-5 ec308: minimum BLI concentration inhibiting growth with 4 μg/mL aztreonam
PAM1032/KPC-2 = test: Biapenem potentiation in PAM1032/KPC-2 (MexAB-OprM overexpressed); type: cell-based, Pseudomonas aeruginosa; conditions: BLI potency to decrease biapenem MIC 64-fold, 32 to 0.5 μg/ml; efflux proficient strain
Method: (§2) Efflux of BLIs from Pseudomonas aeruginosa by the MexAB-OprM efflux pump was also evaluated. […] Due to expression of KPC-2 both strains became resistant to biapenem. […] Potency of BLIs to potentiate biapenem in these strains was determined. […] The ratio of MPC64 values for each BLI in PAM1032/KPC-2 (efflux proficient) and PAM1154/KPC-2 (efflux deficient) was determined to generate the Efflux Index (EI).

ec302 (TEM-10) [7] = test: Potentiation of tigemonam, strain ec302; type: cell-based
ec308 (SHV-5) [8] = test: Potentiation of tigemonam, strain ec308; type: cell-based; conditions: minimum BLI concentration inhibiting growth with 4 μg/mL tigemonam
KP1005 (CTX-M-14) = test: Potentiation of aztreonam, strain KP1005; type: cell-based
PAM1154/KPC-2 = test: Biapenem potentiation in PAM1154/KPC-2 (MexAB-OprM lacking); type: cell-based, Pseudomonas aeruginosa
Method: as §2

ECL1002 = test: Potentiation of aztreonam, strain ECL1002; type: cell-based; conditions: minimum BLI concentration inhibiting growth with 4 μg/mL aztreonam
KPC-2 = KPC-2 (Klebsiella pneumoniae, UniProt Q9F663); test: Inhibition of nitrocefin cleavage by purified KPC-2; type: biochemical; conditions: nitrocefin reporter substrate, purified enzyme; read-out: Ki (KPC-2, NCF)
Chain of KPC-2 (Q9F663 25-293, looked up, species assumed): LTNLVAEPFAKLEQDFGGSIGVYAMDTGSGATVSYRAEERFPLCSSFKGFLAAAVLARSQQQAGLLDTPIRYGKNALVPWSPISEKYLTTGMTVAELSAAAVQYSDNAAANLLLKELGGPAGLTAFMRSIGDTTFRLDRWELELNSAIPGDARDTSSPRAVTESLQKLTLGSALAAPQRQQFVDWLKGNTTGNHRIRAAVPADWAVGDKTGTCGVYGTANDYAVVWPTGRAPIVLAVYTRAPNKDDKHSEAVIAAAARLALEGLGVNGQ
Method: as §1

[9] = minimum BLI concentration inhibiting growth with 4 μg/mL aztreonam

Row | SMILES | AZT MPC4 CMY-6 EC1010 (EC1010 (CMY-6) [1]) | TIG MPC4 CTX-M-15 KP1009 (KP1009 (CTX-M-15) [2]) | AZT MPC4 K-2 KP1004 (KP1004 (K-2)) | AZT MPC4 CTX-M-15 KP1009 (KP1009 (CTX-M-15) [3]) | Ki (SHV-12) [nM] | TIG MPC4 CMY-6 EC1010 (EC1010 (CMY-6) [4]) | AZT MPC4 TEM-10 ec302 (ec302 (TEM-10) [5]) | AZT MPC4 SHV-5 ec308 (ec308 (SHV-5) [6]) | PAM1032/KPC-2 Biapenem MPC64 (PAM1032/KPC-2) | TIG MPC4 TEM-10 ec302 (ec302 (TEM-10) [7]) | TIG MPC4 SHV-5 ec308 (ec308 (SHV-5) [8]) | AZT MPC4 CTX-M-14 KP1005 (KP1005 (CTX-M-14)) | AZT MPC4 ECL1002 (ECL1002) | Ki (KPC-2) [nM] | PAM1154/KPC-2 Biapenem MPC64 (PAM1154/KPC-2) | further results
1 | Cn1nnnc1SCC(=O)N[C@H]1Cc2cccc(C(=O)O)c2OB1O [Compound 2, (R)-2-hydroxy-3-(2-(1-methyl-1H-tetrazol-5-ylthio)acetamido)-3,4-dihydro-2H-benzo[e][1,2]oxaborinine-8-carboxylic acid] | Y (key: X = MIC of less than 1 μg/mL; Y = MIC of 1 μg/mL to 10 μg/mL; Z = MIC of greater than 10 μg/mL) | Y (Y = MIC of 1 μg/mL to 10 μg/mL) | Y (Y = MIC of 1 μg/mL to 10 μg/mL) | Y (key: X = MIC of less than 1 μg/mL; Y = MIC of 1 μg/mL to 10 μg/mL; Z = MIC of greater than 10 μg/mL) | < 1 | X (key: X = MIC of less than 1 μg/mL; Y = MIC of 1 μg/mL to 10 μg/mL; Z = MIC of greater than 10 μg/mL) | Y (key: X = MIC of less than 1 μg/mL; Y = MIC of 1 μg/mL to 10 μg/mL; Z = MIC of greater than 10 μg/mL) | X (X = MIC of less than 1 μg/mL) | Z (Z Greater than 40) | Y (key: X = MIC of less than 1 μg/mL; Y = MIC of 1 μg/mL to 10 μg/mL; Z = MIC of greater than 10 μg/mL) | X (X = MIC of less than 1 μg/mL) | X (key: X = MIC of less than 1 μg/mL; Y = MIC of 1 μg/mL to 10 μg/mL; Z = MIC of greater than 10 μg/mL) | Y (Y = MIC of 1 μg/mL to 10 μg/mL) | – | – | PAM11154/KPC-2 Biapenem MPC64 (PAM1154/KPC-2; BLI potency to decrease biapenem MIC 64-fold, 32 to 0.5 μg/ml, efflux deficient strain): Y (Y = 10 to 40)
2 | O=C(N[C@H]1Cc2cccc(C(=O)O)c2OB1O)c1cncnc1 [Compound 18, (R)-2-hydroxy-3-(pyrimidine-5-carboxamido)-3,4-dihydro-2H-benzo[e][1,2]oxaborinine-8-carboxylic acid] | Y (key: X = MIC of less than 1 μg/mL; Y = MIC of 1 μg/mL to 10 μg/mL; Z = MIC of greater than 10 μg/mL) | Y (Y = MIC of 1 μg/mL to 10 μg/mL) | Y (Y = MIC of 1 μg/mL to 10 μg/mL) | Y (key: X = MIC of less than 1 μg/mL; Y = MIC of 1 μg/mL to 10 μg/mL; Z = MIC of greater than 10 μg/mL) | < 1 | X (key: X = MIC of less than 1 μg/mL; Y = MIC of 1 μg/mL to 10 μg/mL; Z = MIC of greater than 10 μg/mL) | X (key: X = MIC of less than 1 μg/mL; Y = MIC of 1 μg/mL to 10 μg/mL; Z = MIC of greater than 10 μg/mL) | Y (Y = MIC of 1 μg/mL to 10 μg/mL) | Z (Z Greater than 40) | Y (key: X = MIC of less than 1 μg/mL; Y = MIC of 1 μg/mL to 10 μg/mL; Z = MIC of greater than 10 μg/mL) | Y (Y = MIC of 1 μg/mL to 10 μg/mL) | Y (key: X = MIC of less than 1 μg/mL; Y = MIC of 1 μg/mL to 10 μg/mL; Z = MIC of greater than 10 μg/mL) | Y (Y = MIC of 1 μg/mL to 10 μg/mL) | > 10 | X (key: X = Less than 10; Y = 10 to 40; Z Greater than 40) | –
3 | C[C@H]1[C@H](NC(=O)/C(=N\OC(C)(C)C(=O)O)c2csc(N)n2)C(=O)N1S(=O)(=O)O [Aztreonam, reference compound] | – | – | – | – | – | – | – | – | – | – | – | – | – | – | – | MIC (EC1010 (CMY-6) [1]; read-out: Aztreonam MIC): > 128 µg/mL; MIC (KP1004 (K-2); read-out: Aztreonam MIC): > 128 µg/mL; MIC (KP1009 (CTX-M-15) [3]; read-out: Aztreonam MIC): > 128 µg/mL; MIC (ec302 (TEM-10) [5]; read-out: Aztreonam MIC): 128 µg/mL; MIC (ec308 (SHV-5) [6]; read-out: Aztreonam MIC): > 128 µg/mL; MIC (KP1005 (CTX-M-14); read-out: Aztreonam MIC): > 128 µg/mL
4 | Nc1nnc(C(=O)N[C@H]2Cc3cccc(C(=O)O)c3OB2O)s1 [Compound 19, (R)-3-(5-amino-1,3,4-thiadiazole-2-carboxamido)-2-hydroxy-3,4-dihydro-2H-benzo[e][1,2]oxaborinine-8-carboxylic acid] | – | Y (Y = MIC of 1 μg/mL to 10 μg/mL) | Y (Y = MIC of 1 μg/mL to 10 μg/mL) | Y (key: X = MIC of less than 1 μg/mL; Y = MIC of 1 μg/mL to 10 μg/mL; Z = MIC of greater than 10 μg/mL) | < 1 | X (key: X = MIC of less than 1 μg/mL; Y = MIC of 1 μg/mL to 10 μg/mL; Z = MIC of greater than 10 μg/mL) | Y (key: X = MIC of less than 1 μg/mL; Y = MIC of 1 μg/mL to 10 μg/mL; Z = MIC of greater than 10 μg/mL) | X (X = MIC of less than 1 μg/mL) | – | – | X (X = MIC of less than 1 μg/mL) | Y (key: X = MIC of less than 1 μg/mL; Y = MIC of 1 μg/mL to 10 μg/mL; Z = MIC of greater than 10 μg/mL) | Y (Y = MIC of 1 μg/mL to 10 μg/mL) | > 10 | – | –
5 | CN(C)C(=O)C(=O)N[C@H]1Cc2cccc(C(=O)O)c2OB1O [Compound 9, (R)-3-(2-(dimethylamino)-2-oxoacetamido)-2-hydroxy-3,4-dihydro-2H-benzo[e][1,2]oxaborinine-8-carboxylic acid] | Y (key: X = MIC of less than 1 μg/mL; Y = MIC of 1 μg/mL to 10 μg/mL; Z = MIC of greater than 10 μg/mL) | Y (Y = MIC of 1 μg/mL to 10 μg/mL) | Y (Y = MIC of 1 μg/mL to 10 μg/mL) | Y (key: X = MIC of less than 1 μg/mL; Y = MIC of 1 μg/mL to 10 μg/mL; Z = MIC of greater than 10 μg/mL) | – | Y (key: X = MIC of less than 1 μg/mL; Y = MIC of 1 μg/mL to 10 μg/mL; Z = MIC of greater than 10 μg/mL) | Y (key: X = MIC of less than 1 μg/mL; Y = MIC of 1 μg/mL to 10 μg/mL; Z = MIC of greater than 10 μg/mL) | X (X = MIC of less than 1 μg/mL) | – | Z (key: X = MIC of less than 1 μg/mL; Y = MIC of 1 μg/mL to 10 μg/mL; Z = MIC of greater than 10 μg/mL) | Y (Y = MIC of 1 μg/mL to 10 μg/mL) | Y (key: X = MIC of less than 1 μg/mL; Y = MIC of 1 μg/mL to 10 μg/mL; Z = MIC of greater than 10 μg/mL) | Y (Y = MIC of 1 μg/mL to 10 μg/mL) | > 10 | – | –
6 | O=C(CSC(F)(F)F)N[C@H]1Cc2cccc(C(=O)O)c2OB1O [Compound 1, (R)-2-hydroxy-3-(2-(trifluoromethylthio)acetamido)-3,4-dihydro-2H-benzo[e][1,2]oxaborinine-8-carboxylic acid] | – | Y (Y = MIC of 1 μg/mL to 10 μg/mL) | Y (Y = MIC of 1 μg/mL to 10 μg/mL) | – | < 1 | – | – | X (X = MIC of less than 1 μg/mL) | Z (Z Greater than 40) | Z (key: X = MIC of less than 1 μg/mL; Y = MIC of 1 μg/mL to 10 μg/mL; Z = MIC of greater than 10 μg/mL) | X (X = MIC of less than 1 μg/mL) | – | Y (Y = MIC of 1 μg/mL to 10 μg/mL) | – | X (key: X = Less than 10; Y = 10 to 40; Z Greater than 40) | AZT MPC4 CMY-6 EC1010 (EC1010 (CMY-6) [1]; [9]): Y (Y = MIC of 1 μg/mL to 10 μg/mL); AZT MPC4 CTX-M-15 KP1009 (KP1009 (CTX-M-15) [3]; [9]): Y (Y = MIC of 1 μg/mL to 10 μg/mL); TIG MPC4 CMY-6 EC1010 (EC1010 (CMY-6) [4]; minimum BLI concentration inhibiting growth with 4 μg/mL tigemonam): X (X = MIC of less than 1 μg/mL); AZT MPC4 TEM-10 ec302 (ec302 (TEM-10) [5]; [9]): Y (Y = MIC of 1 μg/mL to 10 μg/mL); AZT MPC4 CTX-M-14 KP1005 (KP1005 (CTX-M-14); [9]): Y (Y = MIC of 1 μg/mL to 10 μg/mL)
